Experimental data reported in patent US10821116B2, “Administration of iloprost as aerosol bolus” (VECTURA GMBH, priority 2011, dated 2020).
“Also recorded” adds a separate entry of the source. Like-named read-outs stand apart in the source and are kept apart here.

Experiments:
[1] = cited from earlier work
[2] = system: patients suffering from pulmonary hypertension (PH); test: Iloprost bolus inhalation in six further patients (Example 4); assay type: in vivo, human; details: bolus inhalation as in Example 3
Procedure: Six further patients suffering from pulmonary hypertension (PH) were treated with iloprost bolus inhalation as in Example 3.

[3] = system: patients with pulmonary arterial hypertension; test: Clinical pilot study of iloprost bolus inhalation (Example 3); assay type: in vivo, human
Procedure: A clinical pilot study to evaluate the safety and tolerability of nebulised iloprost administered by bolus inhalation according to the invention was conducted with 4 patients. Eligible were male and female patients with pulmonary arterial hypertension in the age from 18 to 70 years having a mean pulmonary arterial blood pressure (PAP) higher than 25 mm Hg, a pulmonary vascular resistance (PVR) higher than 240 dyn*s*cm^−5, a central venous pressure (CVP) higher than 3 mm Hg, and a pulmonary capillary wedge pressure (PCWP) lower than 12 mm Hg. Excluded were patients with a contraindication for cardiac catheterisation (such as coagulopathy, bleeding disorder, acute infection, severe cardiac dysrhythmia), pregnancy, systemic systolic blood pressure below 110 mm Hg, highly impaired ventricular function with cardiac index below 1.8 L/min*m^2, and known lack of pulmonary vascular reactivity. Patients were monitored by ECG, pulse oxymetry, and non-invasive blood pressure measurement. An intracardiac catheter was introduced into the distal pulmonary artery to measure PAP, CVP, PCWP, and cardiac output. Also measured were the heart rate, systemic arterial pressure (SAP), systemic vascular resistance (SVR), central arterial and venous blood gases. After the initial determination of all parameters the reactivity of the pulmonary vasculature to oxygen (2 to 4 L/min) and nitric oxide (20 ppm) was tested. Subsequently, patients inhaled a single dose of 2.5 μg of nebulised iloprost in two consecutive breaths, using the same inhalation system and iloprost composition as described in Example 1. Haemodynamic parameters and clinical condition of the patients were assessed before and up to 30 minutes after inhalation. In the absence of adverse effects, a second inhalation manoeuvre with 4 consecutive breaths corresponding to a dose 5 μg iloprost was performed, again followed by an observation period of at least 30 minutes.

[4] = bolus inhalation of 2.5 μg and 5 μg, versus slow inhalation of iloprost

In the case of `CC#CCC(C)[C@H](O)/C=C/[C@@H]1[C@H]2C/C(=C/CCCC(=O)O)C[C@H]2C[C@H]1O` (stereo partly drawn) [iloprost, 5-{(E) -(1S,5S,6R,7R)-7-hydroxy-6[(E)-(3S, 4RS)-3-hydroxy-4-methyl-1-octen-6-inyl]-bi-cyclo[3.3.0]octan-3-ylidene}pentanoic acid], the solubility ([1]; acetone) is listed as “soluble”, the solubility ([1]; aqueous buffer at pH 3) is listed as “very slightly soluble” and the solubility ([1]; aqueous buffer at pH 5) is listed as “very slightly soluble”. For the same compound, the solubility ([1]; aqueous buffer at pH 7) was “soluble”, the solubility ([1]; aqueous buffer pH 9) was “sparingly soluble” and the solubility ([1]; distilled water) was “very slightly soluble”. The solubility ([1]; ethanol) was “soluble”, the solubility ([1]; ethyl acetate) was “soluble” and the solubility ([1]; methanol) was “soluble”. For the same compound, the aqueous solubility ([1]; water) was “rather poor”, the adverse effects ([2]; six PH patients) was “no adverse effects were observed other than the SAP and SVR changes which were mild” and the pulmonary vascular effects ([2]; six PH patients (PAH, iPAH, portopulmonary, CTEPH)) was “very comparable to those found in Example 3”. The “mean pulmonary arterial pressure (PAP) after bolus inhalation versus baseline, p” value ([3]; FIG. 1, n=4, Mann-Whitney rank-sum test) was under 0.05, the “mean systemic arterial pressure (SAP) after bolus inhalation versus baseline, significance” value ([3]; FIG. 3, n=4, Mann-Whitney rank-sum test) was “not significant” and the “systemic vascular resistance (SVR) after bolus inhalation versus baseline, significance” value ([3]; FIG. 4, n=4, Mann-Whitney rank-sum test) was “not significant”. The “tolerability of the treatment” value ([3]; bolus inhalation of 2.5 μg (2 breaths) and 5 μg (4 breaths), 4 PAH patients) was “all patients tolerated the treatment well; also recorded: well-tolerated by patients”, the “systemic side effects (SAP and SVR changes)” value [3, 4] was “comparable to those observed after conventional iloprost treatment” and the “therapeutic pulmonary vascular effects (PAP and PVR changes)” value [3, 4] was “comparable to those observed after conventional iloprost treatment”.
